# Test results reported in patent US5948791A, “Quinoline derivatives for treating malaria” (Hoffmann-La Roche Inc., priority 1995, dated 1999).
# Like-named read-outs stand apart in the source and are kept apart here.
# Assays:
# [1] = test system: Plasmodium falciparum strain NF54; experiment: Growth inhibition of Plasmodium falciparum NF54 (chloroquine-sensitive) in vitro, [G-3H]-hypoxanthin incorporation; type: cell-based; settings: chloroquine-sensitive strain NF54, 72 h, read-out: IC50 for P. falciparum NF54
# Procedure, shortened: (§1)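 Asynchronous intraerythrocytic cultures in human A+ erythrocytes (0.7% parasitemia, 2.5% suspension) in RPMI 1640 with HEPES, NaHCO3 and human serum, exposed to compound titrated over 6-7 steps for 72 h at 37° C, 3% O2. Growth by [G-3H]-hypoxanthin incorporation against untreated controls; IC50 by logit regression.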
# Plasmodium falciparum K1 = experiment: Growth inhibition of Plasmodium falciparum K1 (chloroquine-resistant) in vitro, [G-3H]-hypoxanthin incorporation; type: cell-based, Plasmodium falciparum (strain K1); settings: for IC50: Plasmodium falciparum, K1, 72 h, read-out: IC50 for P. falciparum K1; for Resistance index: ratio of the IC50 for K1 and the IC50 for NF54
# Procedure, shortened: as §1
# Plasmodium berghei = experiment: animal or person; type: in vivo, Plasmodium berghei (strain ANKA) in mice; settings: Plasmodium berghei, mice, blood smears 48 h after treatment
# Procedure, shortened: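 Male albino mice (~25 g) infected i.v. on D0 with P. berghei ANKA (0.2 ml of 10^8 parasitized erythrocytes/ml); single s.c. and p.o. dose 24 h post-infection, 10 mg/kg screen then titration.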
# [2] = po, single peroral dose of 10 mg/kg, read-out: Growth inhibition in % after po administration (GI%, percentage reduction of the parasitemia)
# [3] = sc, single subcutaneous dose of 10 mg/kg, read-out: Growth inhibition in % after sc administration (GI%, percentage reduction of the parasitemia)
Structure (SMILES),IC50 [1] [ng/mL],IC50 (Plasmodium falciparum K1) [ng/mL],Resistance index (Plasmodium falciparum K1),inhibition in vivo at 10 mg/kg (Plasmodium berghei; [2]) [%],inhibition in vivo at 10 mg/kg (Plasmodium berghei; [3]) [%]
"Cl.Cl.Fc1cc(CN[C@H]2CC[C@@H](Nc3ccnc4cc(Cl)ccc34)CC2)ccc1Cl [Example 76, cis-N1-(7-Chloro-quinolin-4-yl)-N4-(4-chloro-3-fluoro-benzyl)-cyclohexane-1,4-diamine dihydrochloride]",7.2,6.1,0.8,96,96
"Cl.Cl.FC(F)(F)c1cc(CN[C@H]2CC[C@@H](Nc3ccnc4cc(Cl)ccc34)CC2)cc(C(F)(F)F)c1 [Example 77, cis-N1-(7-Chloro-quinolin-4-yl)-N4-(3,5-bis-trifluoromethyl-benzyl)-cyclohexane-1,4-diamine dihydrochloride]",96.6,63.2,0.7,99,98
"COc1ccc(CN[C@H]2CC[C@@H](Nc3ccnc4cc(Cl)ccc34)CC2)c(O)c1.Cl.Cl [Example 79, cis-N1-(7-Chloro-quinolin-4-yl)-N4-(2-hydroxy-4-methoxy-benzyl)-cyclohexane-1,4-diamine dihydrochloride]",4.1,7.7,1.9,99.9,100
"COc1ccc(O)c(CN[C@H]2CC[C@@H](Nc3ccnc4cc(Cl)ccc34)CC2)c1.Cl.Cl [Example 80, cis-N1-(7-Chloro-quinolin-4-yl)-N4-(2-hydroxy-5-methoxy-benzyl)-cyclohexane-1,4-diamine dihydrochloride]",8.9,18.4,2.1,99.9,100
"COc1ccc(CN[C@H]2CC[C@@H](Nc3ccnc4cc(Cl)ccc34)CC2)c(OC)c1.Cl.Cl [Example 81, cis-N1-(7-Chloro-quinolin-4-yl)-N4-(2,4-dimethoxy-benzyl)-cyclohexane-1,4-diamine dihydrochloride]",4.3,9.7,2.3,100,100
"COc1cc(CN[C@H]2CC[C@@H](Nc3ccnc4cc(Cl)ccc34)CC2)cc(OC)c1.Cl.Cl [Example 82, cis-N1-(7-Chloro-quinolin-4-yl)-N4-(3,5-dimethoxy-benzyl)-cyclohexane-1,4-diamine dihydrochloride]",5.7,8.5,1.5,99.9,99.9
"CSc1ccc(CN[C@H]2CC[C@@H](Nc3ccnc4cc(Cl)ccc34)CC2)cc1.Cl.Cl [Example 83, cis-N1-(7-Chloro-quinolin-4-yl)-N4-(4-methylsulphanyl-benzyl)-cyclohexane-1,4-diamine dihydrochloride]",8.6,5.9,0.7,100,100
"Cl.Cl.O=[N+]([O-])c1ccc(CN[C@H]2CC[C@@H](Nc3ccnc4cc(Cl)ccc34)CC2)cc1 [Example 84, cis-N1-(7-Chloro-quinolin-4-yl)-N4-(4-nitro-benzyl)-cyclohexane-1,4-diamine dihydrochloride]",6.9,7.8,1.1,100,100
"CCN(CC)c1ccc(CN[C@H]2CC[C@@H](Nc3ccnc4cc(Cl)ccc34)CC2)cc1.Cl.Cl.Cl [Example 85, cis-N1-(7-Chloro-quinolin-4-yl)-N4-(4-diethylamino-benzyl)-cyclohexane-1,4-diamine trihydrochloride]",4.6,3.9,0.8,99.9,100
"Cl.Cl.N#Cc1ccc(CN[C@H]2CC[C@@H](Nc3ccnc4cc(Cl)ccc34)CC2)cc1 [Example 86, cis-N1-(7-Chloro-quinolin-4-yl)-N4-(4-cyano-benzyl)-cyclohexane-1,4-diamine dihydrochloride]",5.6,7,1.3,99.9,99.9
"Cl.Cl.Clc1ccc2c(N[C@H]3CC[C@@H](NCc4ccc(-c5ccccc5)cc4)CC3)ccnc2c1 [Example 87, cis-N1-(7-Chloro-quinolin-4-yl)-N4-(biphenyl-4-yl-methyl)-cyclohexane-1,4-diamine dihydrochloride]",6.2,10.2,1.6,98,94
"COc1ccc(CCN[C@H]2CC[C@H](Nc3ccnc4cc(Cl)ccc34)CC2)cc1OC.Cl.Cl [Example 88, trans-N1-(7-Chloro-quinolin-4-yl)-N4-[2-(3,4-dimethoxy-phenyl)-ethyl]-cyclohexane-1,4-diamine dihydrochloride]",7.4,21.4,2.9,66,99.9
"Cl.Cl.Clc1ccc2c(N[C@H]3CC[C@H](NCCc4ccccc4)CC3)ccnc2c1 [Example 89, trans-N1-(7-Chloro-quinolin-4-yl)-N4-phenethyl-cyclohexane-1,4-diamine dihydrochloride]",2.2,17.5,8.0,99.8,99.9
"COc1cc(N[C@H]2CC[C@H](Nc3ccnc4cc(Cl)ccc34)CC2)cc(OC)c1.Cl [Example 90, trans-N1-(7-Chloro-quinolin-4-yl)-N4-(3,5-dimethoxy-phenyl)-cyclohexane-1,4-diamine hydrochloride]",49.7,98.8,2.0,45,60
"Cl.Cl.Clc1ccc(CCN[C@H]2CC[C@H](Nc3ccnc4cc(Cl)ccc34)CC2)c(Cl)c1 [Example 91, trans-N1-(7-Chloro-quinolin-4-yl)-N4-[2-(2,4-dichloro-phenyl)-ethyl]-cyclohexane-1,4-diamine dihydrochloride]",3.4,10.9,3.2,88,86
"COc1ccc(CCN[C@H]2CC[C@H](Nc3ccnc4cc(Cl)ccc34)CC2)cc1.Cl.Cl [Example 92, trans-N1-(7-Chloro-quinolin-4-yl)-N4-[2-(4-methoxy-phenyl)-ethyl]-cyclohexane-1,4-diamine dihydrochloride]",2.2,8,3.6,85,99.7
"Cl.Cl.O=[N+]([O-])c1ccc(CCN[C@H]2CC[C@H](Nc3ccnc4cc(Cl)ccc34)CC2)cc1 [Example 93, trans-N1-(7-Chloro-quinolin-4-yl)-N4-[2-(4-nitro-phenyl)-ethyl]-cyclohexane-1,4-diamine dihydrochloride]",3.4,8.3,2.4,98,99
"COc1cc(CCN[C@H]2CC[C@H](Nc3ccnc4cc(Cl)ccc34)CC2)cc(OC)c1.Cl.Cl [Example 94, trans-N1-(7-Chloro-quinolin-4-yl)-N4-[2-(3,5-dimethoxy-phenyl)-ethyl]-cyclohexane-1,4-diamine dihydrochloride]",2.9,9.8,3.4,99,99.9
"Cl.Cl.Clc1ccc2c(N[C@H]3CC[C@H](NCCc4ccc5c(c4)OCO5)CC3)ccnc2c1 [Example 95, trans-N1-(2-Benzo[1,3]dioxol-5-yl-ethyl)-N4-(7-chloro-quinolin-4-yl)-cyclohexane-1,4-diamine dihydrochloride]",2.7,9.3,3.4,98,99.7
"Cl.Cl.Clc1cccc(CCN[C@H]2CC[C@H](Nc3ccnc4cc(Cl)ccc34)CC2)c1 [Example 96, trans-N1-[2-(3-Chloro-phenyl)-ethyl]-N4-(7-chloro-quinolin-4-yl)-cyclohexane-1,4-diamine dihydrochloride]",1.6,9,5.6,95,98
"COc1ccc(OC)c(CCN[C@H]2CC[C@H](Nc3ccnc4cc(Cl)ccc34)CC2)c1.Cl.Cl [Example 97, trans-N1-(7-Chloro-quinolin-4-yl)-N4-[2-(2,5-dimethoxy-phenyl)-ethyl]-cyclohexane-1,4-diamine dihydrochloride]",4.1,17.8,4.3,49,99
"Cl.Cl.Clc1ccc2c(N[C@H]3CC[C@H](NCCc4ccc(Oc5ccccc5)cc4)CC3)ccnc2c1 [Example 98, trans-N1-(7-Chloro-quinolin-4-yl)-N4-[2-(4-phenoxy-phenyl)-ethyl]-cyclohexane-1,4-diamine dihydrochloride]",4.5,8.5,1.9,50,93
